Test results from ChEMBL document CHEMBL1126460, “The use of synthetic phosphopeptides for epitope mapping of the s1-casein phosphopeptide segment 5979” (Bioorg Med Chem Lett, 1992).

Assay: Peptide was evaluated for inhibition in competitive ELISA at a concentration of 1 mM using casein phosphopeptide alpha s1-casein (59-79) as the adsorbed antigen

Compound	inhibition [%]
CC[C@H](C)[C@H](N)C(=O)N[C@H](C(=O)N1CCC[C@@H]1C(=O)N[C@@H](CC(N)=O)C(=O)N[C@@H](COP(=O)(Oc1ccccc1)Oc1ccccc1)C(=O)N[C@H](C(=O)N[C@@H](CCC(=O)O)C(=O)N[C@@H](CCC(=O)O)C(=O)NC)C(C)C)C(C)C	60.3
CC[C@H](C)[C@H](NC(=O)[C@H](COP(=O)(Oc1ccccc1)Oc1ccccc1)NC(=O)[C@H](CCC(=O)O)NC(=O)[C@H](C)NC(=O)[C@@H](N)CCC(=O)O)C(=O)NC	10.9
CC[C@H](C)[C@H](NC(=O)[C@H](CCC(=O)O)NC(=O)[C@@H](N)CCC(=O)O)C(=O)N[C@H](C(=O)N1CCC[C@@H]1C(=O)N[C@@H](CC(N)=O)C(=O)O)C(C)C	10.8
H-QMEAE-OH	10

Continued, values first:

inhibition [%]	Compound
12	CC[C@H](C)[C@H](N)C(=O)N[C@H](C(=O)N1CCC[C@@H]1C(=O)N[C@@H](CC(N)=O)C(=O)N[C@@H](CO)C(=O)N[C@H](C(=O)N[C@@H](CCC(=O)O)C(=O)N[C@@H](CCC(=O)O)C(=O)NC)C(C)C)C(C)C
20	CC[C@H](C)[C@H](NC(=O)[C@H](COP(=O)(Oc1ccccc1)Oc1ccccc1)NC(=O)[C@H](CCC(=O)O)NC(C)=O)C(=O)N[C@@H](COP(=O)(Oc1ccccc1)Oc1ccccc1)C(=O)N[C@@H](COP(=O)(Oc1ccccc1)Oc1ccccc1)C(=O)N[C@@H](COP(=O)(Oc1ccccc1)Oc1ccccc1)C(=O)N[C@@H](CCC(=O)O)C(=O)NC(CCC(=O)O)C(=O)NC (stereo partly specified)
